# According to patent US10517889B2, “Modulators of SMAD7 expression” (Ionis Pharmaceuticals, Inc., priority 2017, dated 2019):
# Strand notation (5' to 3'): a small letter for the sugar, then the base; units joined by * are phosphorothioate-linked, units joined directly phosphodiester-linked; [ ] holds rarer units or linkages, { } end groups; capitals alone tell only the bases. e = 2'-O-(2-methoxyethyl) (MOE); [5mC] = 5-methylcytosine; d = 2'-deoxy (DNA)
# What was measured:
# [1] = test system: human SMAD7 mRNA; experiment: Antisense inhibition of human SMAD7 mRNA expression in Hep3B cells by 5-10-5 MOE gapmers, single concentration, electroporation, RT-PCR (Example 1, Study 1 and 2); assay type: cell-based
# Outline: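 Hep3B cells (20,000/well) electroporated with 5-10-5 MOE gapmer at 5,000 nM or 15,000 nM for approximately 24 h. SMAD7 mRNA quantified by real-time PCR with primer probe set RTS5062 and normalized to RIBOGREEN total RNA. Values are percent inhibition relative to untreated controls.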
# [2] = test system: human SMAD7 mRNA; experiment: Dose-dependent inhibition of human SMAD7 mRNA expression in Hep3B cells (Example 3, Study 1 and 2); assay type: cell-based; conditions: electroporation; for % inhibition of SMAD7 mRNA expression: approximately 16 hours; for IC50: Study 1 (312.5-20000 nM)
# Outline: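 Hep3B cells, 20,000 per well, electroporated with antisense oligonucleotide at 0.31, 1.25, 5.00 or 20.00 μM (first series) or 0.74, 2.22, 6.67 or 20.00 μM (second series). After ~16 h, SMAD7 mRNA measured by RT-qPCR (RTS5062), normalised to RIBOGREEN total RNA. Percent inhibition vs untreated cells; IC50 derived.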
# [3] = Study 2, electroporation with 15,000 nM antisense oligonucleotide, 5-10-5 MOE gapmers targeting SEQ ID NO: 1 and 2
# [4] = 312.5 nM, Study 1, relative to untreated control cells
# [5] = electroporation, 15,000 nM antisense oligonucleotide (Study 2), 5-10-5 MOE gapmers targeting SEQ ID NO: 1 and 2
# [6] = electroporation, 15,000 nM, approximately 24 hours, relative to untreated control cells, gapmers targeting SEQ ID NO: 1 and 2
# [7] = electroporation with 15,000 nM antisense oligonucleotide (Study 2), 5-10-5 MOE gapmers targeting SEQ ID NO: 1 and 2
substance,measurement,setting,value
771386 (antisense e[5mC]*eT*eG*eG*eA*d[5mC]*dA*dG*dT*d[5mC]*dT*dG*d[5mC]*dT*dG*eT*eG*eG*eA*eT) [compound 771386],% Inhibition,[1]; [3],57%
same,% inhibition of SMAD7 mRNA expression,[2]; [4],9%
same,% inhibition of SMAD7 mRNA expression,"[2]; 1250.0 nM, Study 1",3%
same,% inhibition of SMAD7 mRNA expression,"[2]; 5000.0 nM, Study 1",25%
same,% inhibition of SMAD7 mRNA expression,"[2]; 20000.0 nM, Study 1",60%
same,IC50,[2],19 µM
771418 (e[5mC]*e[5mC]*eG*e[5mC]*e[5mC]*dA*d[5mC]*d[5mC]*dG*dG*d[5mC]*d[5mC]*d[5mC]*d[5mC]*dA*eT*eG*e[5mC]*eG*e[5mC]; antisense) [compound 771418],% inhibition of SMAD7 mRNA expression,[1]; [5],60%
same,% inhibition of SMAD7 mRNA expression,[2]; [4],3%
same,% inhibition of SMAD7 mRNA expression,"[2]; 1250.0 nM, Study 1",0%
same,% inhibition of SMAD7 mRNA expression,"[2]; 5000.0 nM, Study 1",0%
same,% inhibition of SMAD7 mRNA expression,"[2]; 20000.0 nM, Study 1",0%
771737 (antisense eT*e[5mC]*eA*eA*eA*dT*dG*dA*dA*d[5mC]*d[5mC]*d[5mC]*dT*dG*dG*eT*eT*eA*eT*eA) [compound 771737],% inhibition of SMAD7 mRNA expression,[1]; [5],57%
same,% inhibition of SMAD7 mRNA expression,[2]; [4],0%
same,% inhibition of SMAD7 mRNA expression,"[2]; 1250.0 nM, Study 1",2%
same,% inhibition of SMAD7 mRNA expression,"[2]; 5000.0 nM, Study 1",0%
same,% inhibition of SMAD7 mRNA expression,"[2]; 20000.0 nM, Study 1",16%
771461 (antisense eG*eT*eA*eG*eA*dG*d[5mC]*d[5mC]*dT*d[5mC]*d[5mC]*d[5mC]*d[5mC]*dA*d[5mC]*eT*e[5mC]*eT*e[5mC]*eG) [compound 771461],% Inhibition,[1]; [3],37%
same,% inhibition of SMAD7 mRNA expression,[2]; [4],0%
same,% inhibition of SMAD7 mRNA expression,"[2]; 1250.0 nM, Study 1",2%
same,% inhibition of SMAD7 mRNA expression,"[2]; 5000.0 nM, Study 1",11%
same,% inhibition of SMAD7 mRNA expression,"[2]; 20000.0 nM, Study 1",39%
same,IC50,[2],> 20 µM
771581 (antisense eG*eG*eG*eA*e[5mC]*d[5mC]*d[5mC]*d[5mC]*dA*dG*d[5mC]*d[5mC]*dG*d[5mC]*d[5mC]*eA*eG*e[5mC]*eT*eT) [compound 771581],% inhibition of SMAD7 mRNA expression,[1]; [6],58%
same,% inhibition of SMAD7 mRNA expression,[2]; [4],0%
same,% inhibition of SMAD7 mRNA expression,"[2]; 1250.0 nM, Study 1",0%
same,% inhibition of SMAD7 mRNA expression,"[2]; 5000.0 nM, Study 1",9%
same,% inhibition of SMAD7 mRNA expression,"[2]; 20000.0 nM, Study 1",65%
same,IC50,[2],19 µM
771808 (antisense e[5mC]*e[5mC]*e[5mC]*e[5mC]*eA*dA*dA*dG*dT*d[5mC]*d[5mC]*dA*d[5mC]*dG*d[5mC]*eT*e[5mC]*eA*eT*eG) [compound 771808],% Inhibition of SMAD7 mRNA,[1]; [7],54%
same,% inhibition of SMAD7 mRNA expression,[1]; [5],32%
same,% inhibition of SMAD7 mRNA expression,[2]; [4],10%
same,% inhibition of SMAD7 mRNA expression,"[2]; 1250.0 nM, Study 1",0%
same,% inhibition of SMAD7 mRNA expression,"[2]; 5000.0 nM, Study 1",23%
same,% inhibition of SMAD7 mRNA expression,"[2]; 20000.0 nM, Study 1",66%
same,IC50,[2],16 µM
771831 (antisense e[5mC]*eG*eA*eT*e[5mC]*dA*dT*dT*dT*dT*d[5mC]*dT*dA*d[5mC]*dA*e[5mC]*e[5mC]*eT*eT*eT) [compound 771831],% Inhibition,[1]; [3],66%
same,% inhibition of SMAD7 mRNA expression,[2]; [4],0%
same,% inhibition of SMAD7 mRNA expression,"[2]; 1250.0 nM, Study 1",13%
same,% inhibition of SMAD7 mRNA expression,"[2]; 5000.0 nM, Study 1",32%
same,% inhibition of SMAD7 mRNA expression,"[2]; 20000.0 nM, Study 1",51%
same,IC50,[2],16 µM
771390 (antisense e[5mC]*eG*eG*e[5mC]*eT*dG*d[5mC]*d[5mC]*d[5mC]*d[5mC]*dA*d[5mC]*d[5mC]*d[5mC]*d[5mC]*eG*e[5mC]*eG*e[5mC]*eG) [compound 771390],% Inhibition,[1]; [3],66%
same,% inhibition of SMAD7 mRNA expression,"[1]; electroporation, 5,000 nM, approximately 24 hours, relative to untreated control cells, gapmers targeting SEQ ID NO: 1 and 2",32%
same,% inhibition of SMAD7 mRNA expression,[2]; [4],0%
same,% inhibition of SMAD7 mRNA expression,"[2]; 1250.0 nM, Study 1",12%
same,% inhibition of SMAD7 mRNA expression,"[2]; 5000.0 nM, Study 1",26%
same,% inhibition of SMAD7 mRNA expression,"[2]; 20000.0 nM, Study 1",51%
same,IC50,[2],> 20 µM
771641 (antisense eA*eG*eT*eT*eA*dG*dG*dT*dG*dT*d[5mC]*dA*dG*d[5mC]*d[5mC]*eT*eA*eG*eG*eA) [compound 771641],% inhibition of SMAD7 mRNA expression,[1]; [7],71%
same,% inhibition of SMAD7 mRNA expression,[2]; [4],3%
same,% inhibition of SMAD7 mRNA expression,"[2]; 1250.0 nM, Study 1",16%
same,% inhibition of SMAD7 mRNA expression,"[2]; 5000.0 nM, Study 1",24%
same,% inhibition of SMAD7 mRNA expression,"[2]; 20000.0 nM, Study 1",50%
same,IC50,[2],> 20 µM
771552 (antisense e[5mC]*eT*eT*eG*eG*dA*dT*dT*dT*d[5mC]*dT*dG*d[5mC]*dT*dT*e[5mC]*e[5mC]*e[5mC]*e[5mC]*eT) [compound 771552],% Inhibition of SMAD7 mRNA,[1]; [7],53%
same,% inhibition of SMAD7 mRNA expression,[1]; [5],28%
same,% inhibition of SMAD7 mRNA expression,[2]; [4],2%
same,% inhibition of SMAD7 mRNA expression,"[2]; 1250.0 nM, Study 1",25%
same,% inhibition of SMAD7 mRNA expression,"[2]; 5000.0 nM, Study 1",20%
same,% inhibition of SMAD7 mRNA expression,"[2]; 20000.0 nM, Study 1",45%
same,IC50,[2],> 20 µM
771670 (antisense eA*eG*eT*e[5mC]*e[5mC]*dT*dT*dT*d[5mC]*dT*d[5mC]*dT*d[5mC]*dT*d[5mC]*eA*eA*eA*eG*e[5mC]) [compound 771670],% inhibition of SMAD7 mRNA expression,[1]; [3],46%
same,% inhibition of SMAD7 mRNA expression,[2]; [4],0%
same,% inhibition of SMAD7 mRNA expression,"[2]; 1250.0 nM, Study 1",0%
same,% inhibition of SMAD7 mRNA expression,"[2]; 5000.0 nM, Study 1",21%
same,% inhibition of SMAD7 mRNA expression,"[2]; 20000.0 nM, Study 1",47%
same,IC50,[2],> 20 µM
771556 (antisense e[5mC]*e[5mC]*e[5mC]*eT*eT*d[5mC]*dA*dT*dA*d[5mC]*dA*d[5mC]*dT*dG*dT*eG*eT*eT*eT*eG) [compound 771556],% inhibition of SMAD7 mRNA expression,[1]; [3],30%
same,% inhibition of SMAD7 mRNA expression,[2]; [4],1%
same,% inhibition of SMAD7 mRNA expression,"[2]; 1250.0 nM, Study 1",0%
same,% inhibition of SMAD7 mRNA expression,"[2]; 5000.0 nM, Study 1",9%
same,% inhibition of SMAD7 mRNA expression,"[2]; 20000.0 nM, Study 1",33%
same,IC50,[2],> 20 µM
771671 (antisense eT*e[5mC]*eA*eG*eG*dA*dG*dT*d[5mC]*d[5mC]*dT*dT*dT*d[5mC]*dT*e[5mC]*eT*e[5mC]*eT*e[5mC]) [compound 771671],% inhibition of SMAD7 mRNA expression,[1]; [3],69%
same,% inhibition of SMAD7 mRNA expression,[2]; [4],0%
same,% inhibition of SMAD7 mRNA expression,"[2]; 1250.0 nM, Study 1",9%
same,% inhibition of SMAD7 mRNA expression,"[2]; 5000.0 nM, Study 1",27%
same,% inhibition of SMAD7 mRNA expression,"[2]; 20000.0 nM, Study 1",49%
same,IC50,[2],> 20 µM
771821 (antisense eG*eT*eT*e[5mC]*e[5mC]*dT*dT*dA*dT*dA*dG*dA*dT*dT*dA*eT*e[5mC]*e[5mC]*eA*eA) [compound 771821],% inhibition of SMAD7 mRNA expression,[1]; [6],60%
same,% inhibition of SMAD7 mRNA expression,[2]; [4],0%
same,% inhibition of SMAD7 mRNA expression,"[2]; 1250.0 nM, Study 1",9%
same,% inhibition of SMAD7 mRNA expression,"[2]; 5000.0 nM, Study 1",27%
same,% inhibition of SMAD7 mRNA expression,"[2]; 20000.0 nM, Study 1",46%
same,IC50,[2],> 20 µM
771407 (antisense eA*eG*eG*eA*eG*d[5mC]*dG*dA*dA*d[5mC]*dA*dT*dG*dA*d[5mC]*e[5mC]*eT*e[5mC]*e[5mC]*eG) [compound 771407],% Inhibition,[1]; [3],59%
same,% inhibition of SMAD7 mRNA expression,[2]; [4],17%
same,% inhibition of SMAD7 mRNA expression,"[2]; 1250.0 nM, Study 1",0%
same,% inhibition of SMAD7 mRNA expression,"[2]; 5000.0 nM, Study 1",30%
same,% inhibition of SMAD7 mRNA expression,"[2]; 20000.0 nM, Study 1",46%
same,IC50,[2],> 20 µM
771778 (antisense eT*eG*eA*eG*eT*dA*dA*dA*d[5mC]*dA*dA*dT*dA*d[5mC]*d[5mC]*e[5mC]*eT*e[5mC]*eA*eG) [compound 771778],% inhibition of SMAD7 mRNA expression,[1]; [5],66%
same,% inhibition of SMAD7 mRNA expression,[2]; [4],48%
same,% inhibition of SMAD7 mRNA expression,"[2]; 1250.0 nM, Study 1",0%
same,% inhibition of SMAD7 mRNA expression,"[2]; 5000.0 nM, Study 1",37%
same,% inhibition of SMAD7 mRNA expression,"[2]; 20000.0 nM, Study 1",55%
same,IC50,[2],> 20 µM
771345 (antisense eA*e[5mC]*eA*eG*e[5mC]*dA*dT*d[5mC]*dT*dG*dG*dA*d[5mC]*dA*dG*eT*e[5mC]*eA*eG*eT) [compound 771345],% inhibition of SMAD7 mRNA expression,"[1]; electroporation, 15,000 nM, approximately 24 hours, gapmers targeting SEQ ID NO: 3 and 4",54%
same,% inhibition of SMAD7 mRNA expression,[2]; [4],6%
same,% inhibition of SMAD7 mRNA expression,"[2]; 1250.0 nM, Study 1",19%
same,% inhibition of SMAD7 mRNA expression,"[2]; 5000.0 nM, Study 1",49%
same,% inhibition of SMAD7 mRNA expression,"[2]; 20000.0 nM, Study 1",69%
same,IC50,[2],6 µM
